Results taken from publication PMC9960930, “Saponin and Fatty Acid Profiling of the Sea Cucumber Holothuria atra, α-Glucosidase Inhibitory Activity and the Identification of a Novel Triterpene Glycoside” (Nutrients, 2023).
Values after ≈ are worked out from the molar mass of the structure shown. Where two headings read alike, the source gives them in different places. One block for each compound: values may come before it.

Columns and labels:
α-glucosidase [1] = target: α-glucosidase; parameters: method as in PMID 22416705; settings: cited from earlier work; for IC50 against α-glucosidase: fatty acids from body wall of S. japonicus; for α-glucosidase inhibitory activity: purified from body wall of S. japonicus
[2] = solubility in NMR solvent; settings: noticed when preparing the compounds for NMR analysis
α-glucosidase [3] = target: α-glucosidase; parameters: method as in PMID 25735900; settings: cited from earlier work; for IC50: purified from S. japonicas, read-out: IC50 against α-glucosidase; for α-glucosidase inhibitory activity: purified from internal organs of S. japonicus
[4] = target: α-glucosidase from Saccharomyces cerevisiae; experiment: α-glucosidase inhibition assay (PNPG substrate); format: biochemical; settings: commercial pure fatty acids; acarbose positive control; three repeats; read-out: IC50 against α-glucosidase
Experimental: The reference standard for the GC-MS analysis was a Supelco 37 Component FAME mix from Sigma Aldrich (Sigma-Aldrich Chemie GmbH, Steinheim, Germany). Pure fatty acids, including palmitoleic acid (≥98.5%), arachidonic acid, and eicosapentaenoic acid (≥99%), were purchased from Sigma Aldrich (Sigma-Aldrich Chemie GmbH, Steinheim, Germany).
The α-glucosidase inhibition was assessed using the method described by Su et al. (2013 and Trinh et al. (2016), with a slight modification. In total, 100 μL of the α-glucosidase enzyme solution from Saccharomyces cerevisiae (0.2 U/mL in a 0.1 M phosphate buffer at pH 6.8) and 50 μL of the sample dissolved in the phosphate buffer containing 6% DMSO 0.25–20 mg/mL), and were incubated in a transparent 96-well plate at 37 °C for 15 min. Next, 50 μL of PNPG (5 mM in a 0.1 m phosphate buffer) was added. The PNPG was hydrolyzed to release p-nitrophenyl (PNP), and this process was monitored at 405 nm for 30 min at 37 °C, with a BioTek Eon microplate reader (Winooski, VT, USA)) using the Gen5 version 2.06 software. […] The IC50 values were calculated with GraphPad Prism 6 software (GraphPad Software Inc, La Jolla, CA, USA). The IC50 values were subjected to one-way analysis of variance (ANOVA) and the Tukey post hoc test, using GraphPad Prism 6 software to assess any significant differences among the treatments. P-values < 0.05 were considered significant.

α-glucosidase [5] = target: α-glucosidase; parameters: method as in PMID 23355366; settings: read-out: IC50 against α-glucosidase; cited from earlier work
α-glucosidase [6] = test system: α-glucosidase; parameters: method as in PMID 26932154; settings: cited from earlier work
diabetic mice = test system: diabetic mice; parameters: method as in PMID 26932154; settings: treatment of diabetic mice; cited from earlier work

Structure (SMILES): CCCCCCC/C=C\C/C=C\CCCCCC(=O)O [7(Z),10(Z)-octadecadienoic acid]
IC50 against α-glucosidase (α-glucosidase [1]): 0.49 ± 0.05 µg/mL (≈ 1.75 µM) | α-glucosidase inhibitory activity (α-glucosidase [1]): strong

Structure (SMILES): CC1OC(OC2C(OC3CCC4(C)C5=CC(O)C67C(=O)OC(C)(C8CCC(C)(C)O8)C6(O)CCC7(C)C5CCC4C3(C)C)OCC(O)C2O)C(O)C(O)C1O (stereo not drawn) [compound 1, desholothurin B]
solubility in methanol-d4 [2]: soluble

Structure (SMILES): CCCCCCCC/C=C\CCCCCCCC(=O)O [cis-9-octadecenoic acid]
IC50 (α-glucosidase [3]): 14.9 µM | α-glucosidase inhibitory activity (α-glucosidase [3]): strong

IC50 [4]: 596 ± 44 µM
Structure (SMILES): CCCCC/C=C\C/C=C\C/C=C\C/C=C\CCCC(=O)O [Arachidonic acid]
IC50 (α-glucosidase [5]): 211 ± 2 µM

Structure (SMILES): CCCCCCCCCC/C=C\CCCCCC(=O)O [7(Z)-octadecenoic acid]
IC50 against α-glucosidase (α-glucosidase [1]): 0.51 ± 0.02 µg/mL (≈ 1.81 µM) | α-glucosidase inhibitory activity (α-glucosidase [1]): strong

IC50 [4]: 320 ± 32 µM
Structure (SMILES): CCCCCC/C=C\CCCCCCCC(=O)O [Palmitoleic acid]
IC50 (α-glucosidase [5]): 265 ± 2 µM

Structure (SMILES): CO[C@@H]1[C@@H](O)[C@H](O[C@@H]2[C@@H](O)[C@H](O[C@H]3[C@H](O)[C@@H](O)[C@H](O[C@H]4[C@H](O[C@H]5CC[C@]6(C)C7=C[C@H](O)[C@@]89C(=O)O[C@@](C)(C%10CCC(C)(C)O%10)[C@@]8(O)CC[C@@]9(C)[C@@H]7CC[C@H]6C5(C)C)OC[C@@H](OS(=O)(=O)O)[C@@H]4O)O[C@@H]3C)O[C@H](CO)[C@H]2O)O[C@H](CO)[C@H]1O (stereo partly drawn) [holothurin A]
α-glucosidase activity (α-glucosidase [6]): inhibited | postprandial blood glucose levels (diabetic mice): suppressed postprandial blood glucose levels

IC50 [4]: 541 ± 39 µM
Structure (SMILES): CC/C=C\C/C=C\C/C=C\C/C=C\C/C=C\CCCC(=O)O [Eicosapentaenoic acid]

Structure (SMILES): COC1C(O)C(CO)OC(OC2C(O)C(CO)OC(OC3C(C)OC(OC4C(OC5CCC6(C)C7=CC(O)C89C(=O)OC(C)(CCCC(C)C)C8(O)CCC9(C)C7CCC6C5(C)C)OCC(OS(=O)(=O)O)C4O)C(O)C3O)C2O)C1O.[Na+] (stereo not drawn) [echinoside A]
α-glucosidase activity (α-glucosidase [6]): inhibited | postprandial blood glucose levels (diabetic mice): suppressed postprandial blood glucose levels

Structure (SMILES): CCCCCC/C=C\CCCCCCCC(=O)OCC(O)COC(=O)CCCCCCC/C=C\CCCCCC [1,3-Dipalmitolein]
IC50 (α-glucosidase [3]): 4.45 µM | α-glucosidase inhibitory activity (α-glucosidase [3]): strong
